Test results from patent publication US20180303141A1, “FLAVOR COMPOSITION FOR FOOD PRODUCTS” (NESTEC S.A., priority 2015, published 2018).

Tests used:
[1] = tested on: panel of six experienced tasters; assay: Evaluation of the umami impression of the pea extract in different bouillon bases (scale 0-3); format: in vivo, human; details: bouillon base containing sub-threshold MSG (60 mg/L), no pea extract; average of six tasters, 0=no umami, 3=strong umami
Text: It is clear from Example 3 that the umami impression cannot be explained solely by the MSG content. The MSG taste threshold is described in the literature as between 0.255 and 0.5 g MSG/L (1.5-3 mmol/L) (Behrens, M., et al. (2011) Sweet and Umami Taste: Natural Products, Their Chemosensory Targets, and Beyond; Angew. Chem. Int. Ed., 50, 2220-2242). Therefore the MSG content for the Pisum sativum extract is below the taste threshold. To confirm the umami taste of the pea extract, all MSG containing ingredients (MSG, ribonucleotides and yeast extract) were removed from a standard bouillon. Pea extract was added. […] The effect of the addition of a pea extract to a bouillon base (which has no intrinsic umami taste) is to provide a strong umami taste. It is clear that the pea extract alone promotes umami taste, and that this effect is even greater in the presence of MSG.
The pea extract used was obtained by a blanching water process containing the composition as described in table 1.
The results given are the average rating of a panel of six experienced tasters rating the umami intensity (0=no umami; 1=umami barely perceivable; 2=umami clearly perceivable; 3=strong umami).

[2] = tested on: panel of 12 experienced tasters; assay: Comparison of the umami impression of a standard bouillon containing MSG and a bouillon with pea extract but no MSG (scale 0-10); format: in vivo, human; details: standard bouillon containing MSG; average of 12 tasters, 0=no umami, 10=strong umami
Text: A standard bouillon containing no MSG but added pea extract was compared to the same standard bouillon containing MSG. A trained panel rated the bouillons on a scale from 0 (no umami) to 10 (strong umami). This gives evidence that the pea extract delivers a strong umami even it is less than to MSG itself, but the taste is received as being more natural and round mouthfeel instead of using MSG alone. […] The pea extract used was obtained by a blanching water process containing the composition as described in table 1. The results given are the average rating of a panel of 12 experienced tasters rating the umami intensity (0=no umami; 10=strong umami).

[3] = tested on: sensory panel of 6 trained persons; assay: Sensory evaluation of pea extract dissolved in water, umami intensity on a 3-point scale versus a control sample; format: in vivo, human; details: calculated for the example with pea extract containing 0.5% beta-R in water
Protocol: Different pea extract from Pisum sativum containing the composition as described in table 1 has been used to define the threshold concentrates in a sensory panel of 6 trained persons. The technical tasting was measured versus a control sample. Tasters were asked to judge the different products according to umami intensity on a 3-point scale.

[4] = tested on: umami taste; assay: Fractionation of aqueous pea extract and analysis of the fractions with strong umami taste; details: compound identified in pea extract
Protocol: The applicant prepared an aqueous extract of pea, preferably green pea and then subjected that extract to fractionation.
The compounds were isolated and characterized using two-dimensional preparative chromatography. For example, size exclusion chromatography in the first dimension, then hydrophilic interaction column (normal phase) in a second dimension. Identification of compounds was carried out using conventional analytical methods such as LC-MS or NMR.

## N[C@@H](CCC(=O)O)C(=O)[O-].[Na+] [MSG, Monosodium glutamate]
[1]
  Umami Rating: 0
[2]
  Umami Rating: 5

## (5R)-(β-D-glucopyranosyloxy)-1,5-dihydro-2H-pyrrol-2-one [beta-R]
[3]
  threshold concentrate: 147 ppm
[4]
  Contribution to umami taste (in words): responsible to provide and enhance an umami taste
